Common to all, as to assay type: in vivo
Holding throughout (design): key: 5=total damage to plant; 0=no damage to plant

The subject of assay [1] is Echinochloa crus-galli (ECHCG). As to the kind of experiment: Pre-emergence herbicidal activity, glasshouse pot test. To be noted: Rate 1000 g/ha; sprayed one day after sowing; evaluated after 13 days. The procedure:
(§1) Seeds of a variety of test species were sown in standard soil in pots: Triticum aestivium (TRZAW), Avena fatua (AVEFA), Alopecurus myosuroides (ALOMY), Echinochloa crus-galli (ECHCG), Lolium perenne (LOLPE), and Setaria faberi (SETFA). After cultivation for one day (pre-emergence) under controlled conditions in a glasshouse (at 24/16° C., day/night; 14 hours light; 65% humidity), the plants were sprayed with an aqueous spray solution derived from the formulation of the technical active ingredient in acetone/water (50:50) solution containing 0.5% Tween 20 (polyoxyethelyene sorbitan monolaurate, CAS RN 9005-64-5). The test plants were then grown in a glasshouse under controlled conditions (at 24/16° C., day/night; 14 hours light; 65% humidity) and watered twice daily. After 13 days, the test was evaluated (5=total damage to plant; 0=no damage to plant).

For assay [2], the system named is Triticum aestivium (TRZAW). The description is as above. To be noted: Rate 1000 g/ha; sprayed one day after sowing; evaluated after 13 days. As for the experimental part: as §1
Assay [3] concerns Avena fatua (AVEFA). Described as above. To be noted: Rate 1000 g/ha; sprayed one day after sowing; evaluated after 13 days. As for the experimental part:
as §1

The test system of assay [4] is Alopecurus myosuroides (ALOMY). Described as above. To be noted: Rate 1000 g/ha; sprayed one day after sowing; evaluated after 13 days. As for the experimental part:
as §1

Assay [5] concerns Setaria faberi (SETFA). The assay is described as above. To be noted: Rate 1000 g/ha; sprayed one day after sowing; evaluated after 13 days. As for the experimental part: as §1
The test system of assay [6] is Lolium perenne (LOLPE). The assay is described as above. To be noted: Rate 1000 g/ha; sprayed one day after sowing; evaluated after 13 days. The procedure:
as §1

In assay [7] the test system is Echinochloa crus-galli (ECHCG). As to the kind of experiment: Post-emergence herbicidal activity, glasshouse pot test. To be noted: Rate 1000 g/ha; sprayed after 8 days cultivation; evaluated after 13 days. The procedure: (§2) Seeds of a variety of test species were sown in standard soil in pots: Triticum aestivium (TRZAW), Avena fatua (AVEFA), Alopecurus myosuroides (ALOMY), Echinochloa crus-galli (ECHCG), Lolium perenne (LOLPE), and Setaria faberi (SETFA). After 8 days cultivation (post-emergence) under controlled conditions in a glasshouse (at 24/16° C., day/night; 14 hours light; 65% humidity), the plants were sprayed with an aqueous spray solution derived from the formulation of the technical active ingredient in acetone/water (50:50) solution containing 0.5% Tween 20 (polyoxyethelyene sorbitan monolaurate, CAS RN 9005-64-5). The test plants were then grown in a glasshouse under controlled conditions (at 24/16° C., day/night; 14 hours light; 65% humidity) and watered twice daily. After 13 days, the test was evaluated (5=total damage to plant; 0=no damage to plant).

In assay [8] the test system is Triticum aestivium (TRZAW). The assay is described as above. To be noted: Rate 1000 g/ha; sprayed after 8 days cultivation; evaluated after 13 days. As for the experimental part:
as §2

The subject of assay [9] is Avena fatua (AVEFA). Described as above. To be noted: Rate 1000 g/ha; sprayed after 8 days cultivation; evaluated after 13 days. The procedure: as §2
Assay [10] deals with Alopecurus myosuroides (ALOMY). The description is as above. To be noted: Rate 1000 g/ha; sprayed after 8 days cultivation; evaluated after 13 days. As for the experimental part: as §2
In assay [11] the test system is Setaria faberi (SETFA). Described as above. To be noted: Rate 1000 g/ha; sprayed after 8 days cultivation; evaluated after 13 days. The procedure:
as §2

Assay [12] deals with Lolium perenne (LOLPE). The assay is described as above. To be noted: Rate 1000 g/ha; sprayed after 8 days cultivation; evaluated after 13 days. The procedure: as §2

For `CC(C)(C)OC(=O)OCc1nc(-c2cncc(F)c2)cnc1N(C(=O)OC(C)(C)C)C(=O)OC(C)(C)C` [Compound H18], the “Control of weed species after pre-emergence application, ECHCG (damage score 0-5)” value in [1] stood at 3. The “Control of weed species after pre-emergence application, TRAZW (damage score 0-5)” value in [2] was found to be 0. For the same compound, in assay [3], the “Control of weed species after pre-emergence application, AVEFA (damage score 0-5)” value was found to be 0. The “Control of weed species after pre-emergence application, ALOMY (damage score 0-5)” value in [4] is reported as 0. Also, the “Control of weed species after pre-emergence application, SETFA (damage score 0-5)” value in [5] stood at 4. In assay [6], the “Control of weed species after pre-emergence application, LOLPE (damage score 0-5)” value is 1. Also, the “Control of weed species after post-emergence application, ECHCG (damage score 0-5)” value in [7] worked out at 4. Also, the “Control of weed species after post-emergence application, TRAZW (damage score 0-5)” value in [8] is recorded as 0. In addition, in [9], the “Control of weed species after post-emergence application, AVEFA (damage score 0-5)” value is listed as 1. For the same compound, the “Control of weed species after post-emergence application, ALOMY (damage score 0-5)” value in assay [10] came to 0. For the same compound, the “Control of weed species after post-emergence application, SETFA (damage score 0-5)” value in assay [11] was determined as 3. Also, the “Control of weed species after post-emergence application, LOLPE (damage score 0-5)” value in [12] is given as 1.
With `Cc1nc(-c2cncc(F)c2)cnc1N(C)C(=O)OC(C)(C)C` [Compound H19, tert-butyl N-(3-methyl-5-(5-fluoropyridin-3-yl)-pyrazin-2-yl)-N-methyl-carbamate], the “Control of weed species after pre-emergence application, ECHCG (damage score 0-5)” value in [1] was 4. Besides, in [2], the “Control of weed species after pre-emergence application, TRAZW (damage score 0-5)” value stood at 0. For the same compound, the “Control of weed species after pre-emergence application, AVEFA (damage score 0-5)” value in [3] was found to be 2. Besides, the “Control of weed species after pre-emergence application, ALOMY (damage score 0-5)” value in assay [4] stood at 0. The “Control of weed species after pre-emergence application, SETFA (damage score 0-5)” value in assay [5] stood at 5. In addition, the “Control of weed species after pre-emergence application, LOLPE (damage score 0-5)” value in assay [6] came to 1. For the same compound, in assay [7], the “Control of weed species after post-emergence application, ECHCG (damage score 0-5)” value was found to be 4. For the same compound, the “Control of weed species after post-emergence application, TRAZW (damage score 0-5)” value in [8] worked out at 0. Further, in [9], the “Control of weed species after post-emergence application, AVEFA (damage score 0-5)” value stood at 3. In addition, the “Control of weed species after post-emergence application, ALOMY (damage score 0-5)” value in assay [10] is listed as 0. The “Control of weed species after post-emergence application, SETFA (damage score 0-5)” value in assay [11] is 5. Besides, in assay [12], the “Control of weed species after post-emergence application, LOLPE (damage score 0-5)” value turned out to be 2.
`C=Cc1nc(-c2cncc(F)c2)cnc1N(C(=O)OC(C)(C)C)C(=O)OC(C)(C)C` [Compound H20]: the “Control of weed species after pre-emergence application, ECHCG (damage score 0-5)” value in [1] was found to be 2. Besides, the “Control of weed species after pre-emergence application, TRAZW (damage score 0-5)” value in assay [2] was determined as 1. The “Control of weed species after pre-emergence application, AVEFA (damage score 0-5)” value in assay [3] is on record as 2. In addition, the “Control of weed species after pre-emergence application, ALOMY (damage score 0-5)” value in assay [4] was 0. Moreover, in [5], the “Control of weed species after pre-emergence application, SETFA (damage score 0-5)” value was 4. Further, the “Control of weed species after pre-emergence application, LOLPE (damage score 0-5)” value in assay [6] amounted to 1. Moreover, in assay [7], the “Control of weed species after post-emergence application, ECHCG (damage score 0-5)” value was determined as 4. In assay [8], the “Control of weed species after post-emergence application, TRAZW (damage score 0-5)” value is recorded as 1. Also, in assay [9], the “Control of weed species after post-emergence application, AVEFA (damage score 0-5)” value came out at 2. Also, in assay [10], the “Control of weed species after post-emergence application, ALOMY (damage score 0-5)” value was determined as 0. In addition, in assay [11], the “Control of weed species after post-emergence application, SETFA (damage score 0-5)” value came to 5. For the same compound, the “Control of weed species after post-emergence application, LOLPE (damage score 0-5)” value in assay [12] is 3.
With `CCc1nc(-c2cncc(F)c2)cnc1N(C(=O)OC(C)(C)C)C(=O)OC(C)(C)C` [Compound H21], the “Control of weed species after pre-emergence application, ECHCG (damage score 0-5)” value in assay [1] was 1. The “Control of weed species after pre-emergence application, TRAZW (damage score 0-5)” value in [2] is on record as 0. Further, in assay [3], the “Control of weed species after pre-emergence application, AVEFA (damage score 0-5)” value is recorded as 2. The “Control of weed species after pre-emergence application, ALOMY (damage score 0-5)” value in assay [4] worked out at 0. Moreover, in [5], the “Control of weed species after pre-emergence application, SETFA (damage score 0-5)” value came to 5. Further, the “Control of weed species after pre-emergence application, LOLPE (damage score 0-5)” value in [6] is recorded as 5. Also, in [7], the “Control of weed species after post-emergence application, ECHCG (damage score 0-5)” value was found to be 4. Besides, in [8], the “Control of weed species after post-emergence application, TRAZW (damage score 0-5)” value worked out at 1. Also, in [9], the “Control of weed species after post-emergence application, AVEFA (damage score 0-5)” value was determined as 4. In addition, the “Control of weed species after post-emergence application, ALOMY (damage score 0-5)” value in assay [10] worked out at 1. Further, in assay [11], the “Control of weed species after post-emergence application, SETFA (damage score 0-5)” value is recorded as 5. In addition, in assay [12], the “Control of weed species after post-emergence application, LOLPE (damage score 0-5)” value turned out to be 4.

These data come from patent publication US11434221B2, “Pyrazine-4-carbamate or -urea derivatives as herbicides” (Syngenta Participations AG, priority 2017, dated 2022).
